Key:
Format in all cases: ADME
Plasma [1] = experiment: Maximum plasma concentration in healthy human at 400 mg; design: dose 400 mg
Plasma [2] = experiment: Maximum plasma concentration in healthy human at 400 mg co-administered with 50 mg ritonavir; design: dose 400 mg
Liver microsome [3] = experiment: Drug metabolism in human liver microsomes treated with lopinavir at 30 uM preincubated for 5 mins prior NADPH addition measured after 50 mins by MS/MS spectroscopy
Liver microsome [4] = experiment: Retention time in human liver microsomes at 30 uM preincubated for 5 mins prior NADPH addition measured after 50 mins by UPLC-TOFMS analysis

Cmax (Plasma [1]) | Cmax (Plasma [2]) | Drug metabolism (Liver microsome [3]) | Retention_time (Liver microsome [4]) | SMILES
100 ng/mL | 5500 ng/mL |  |  | Cc1cccc(C)c1OCC(=O)N[C@@H](Cc1ccccc1)[C@@H](O)C[C@H](Cc1ccccc1)NC(=O)[C@H](C(C)C)N1CCCNC1=O [LOPINAVIR]
 |  | metabolite_detected | 4.99 min | CC(C)[C@@H](C(=O)N[C@@H](Cc1ccccc1)C[C@H](O)[C@H](Cc1ccccc1)NC(=O)/C=N/NC(N)=O)N1CCCNC1=O

From ChEMBL document CHEMBL3525974 (Drug Metab Dispos, 2012)
